Experiments:
[1] = test system: endothelial cells (HUVE cells); experiment: Effect on growth of endothelial cells (HUVE cells, basic FGF, MTT method); assay type: cell-based; conditions: Homo sapiens, Endothelial cell, 72 h, basic FGF 2 ng/ml, 3 days, read-out: IC50 (concentration inhibiting growth of endotherial cells by 50%)
Method: This experiment was conducted by using endothelial cells (HUVE cells) obtained from human umbilical vein. […] After 24 hours, human recombinant basic FGF (endotherial cell growth factor) was added thereto in the final concentration of 2 ng/ml and a test compound was further added, followed by cultivation for 3 days.

[2] = target: calmodulin (Bos taurus, UniProt P62157); experiment: Calmodulin inhibitory activity (calmodulin-activated cyclic nucleotide phosphodiesterase, [3H]cGMP); assay type: biochemical; conditions: 10^-5 M
[3] = test system: spontaneous hypertensive rat (SHR); experiment: Hypotensive activity in spontaneous hypertensive rat (SHR), Plethysmograph method; assay type: in vivo; conditions: SHR male rats, oral, 100 mg/kg; for Change of blood pressure, 1 hour: 1 hour after administration; for Change of blood pressure, 5 hours: 5 hours after administration
Method: Hypotensive activity in spontaneous hypertensive rat (SHR)
SHR male rats of twenty weeks old were used. They were warmed in an incubator at 37° C. for 5 minutes and the measurement was conducted according to Plethysmograph method. Medicines (the compounds in the above Examples) were suspended in gum arabic-water and were orally administered in an amount of 2.5 ml/kg. Blood pressure was measured before administration of medicines, at 1 hour and at 5 hours after administration, and the change of the value from that before administration was determined, respectively.

[4] = test system: rat heart; experiment: Effect on incidence of arrhythmia caused by ischemia and following reperfusion in rat heart; assay type: in vivo; conditions: 1 hour before ligation, until 10 minutes after reperfusion
Method: Effect on incidence of arrhythmia caused by ischemia and following reperfusion in rat heart
Male Sprague Dawley rats (Japan Clea) of 9 to 10 weeks old were anesthetized with 50 mg/kg (i.p.) of sodium pentobarbital. The heart was exposed by a left thoractomy under artificial ventilation with room air and silk suture was placed under the main left coronary artery (LAD) to ligate for 5 minutes. Then, the ligature was released again for reperfusion. The incidence of ventricular tachycardia (VT), ventricular fibrillation (VF) and cardiac arrest (CA) caused until 10 minutes after reperfusion were noted. Medicines (compounds obtained in the above Examples) were orally administered (5 ml/kg) at 1 hour before tightening the ligature. The effect of medicines were estimated in comparison with the frequency of a group received a vehicle according to X^2 -test.

[5] = test system: rat kidneys; experiment: Effect on acute renal failure caused by ischemia and following reperfusion in rat kidneys; assay type: in vivo; conditions: 1 hour before occlusion, 20 hours after reperfusion
Method: Effect on acute renal failure caused by ischemia and following reperfusion in rat kidneys.
SD rats (male) of 6 to 7 weeks old were anesthetized with pentobarbital sodium (50 mg/kg, i.p.) and bilateral renal arteries were ligated. After 45 minutes, a clip was removed to reperfuse. After 20 hours, blood was collected from abdominal aorta under anesthesia with pentobarbital sodium and blood urea nitrogen (BUN) was measured. Medicines (compounds obtained in the above Examples) were orally administered (5 ml/kg) 1 hour before occulusion of renal artery.

[6] = test system: experimental ischemic disorders; conditions: in vivo; cited from earlier work

Row | inhibition at 10 µM [2] [%] | SMILES | Change of blood pressure, 1 hour [3] [mmHg] | Change of blood pressure, 5 hours [3] [mmHg] | CA (Frequency), cardiac arrest ([4]; 30 mg/kg oral) | VF (Frequency), ventricular fibrillation ([4]; 30 mg/kg oral) | VT (Frequency), ventricular tachycardia ([4]; 30 mg/kg oral) | other results
1 | 72 | O=S(=O)(NCCCSc1cccc2nccn12)C(F)(F)F [Compound 28, 5-[3-(Trifluoromethylsulfonylamino)propylthio]imidazo[1,2-a]pyridine] | -13.5 | -43.0 | – | – | – | –
2 | 82 | CS(=O)(=O)NCCCOc1cccc2nccn12 [Compound 64, 5-[3-(methylsulfonylamino)propyloxy]imidazo[1,2-a]pyridine] | -31.0 | -27.0 | 1/3 | 1/3 | 1/3 | –
3 | 72 | O=S(=O)(NCCCCOc1cccc2nccn12)C(F)(F)F [Compound 67, 5-[4-(Trifluoromethylsulfonylamino)butyloxy]imidazo[1,2-a]pyridine] | -15.0 | -22.0 | – | – | – | –
4 | 57 | O=S(=O)(NCCCCCOc1cccc2nccn12)C(F)(F)F [Compound 69, 5-[5-(Trifluoromethylsulfonylamino)pentyloxy]imidazo[1,2-a]pyridine] | -7.0 | -32.0 | – | – | – | –

Further lines, the compound ahead of its results:

Row | SMILES | inhibition at 10 µM [2] [%] | Change of blood pressure, 1 hour [3] [mmHg] | Change of blood pressure, 5 hours [3] [mmHg] | CA (Frequency), cardiac arrest ([4]; 30 mg/kg oral) | VF (Frequency), ventricular fibrillation ([4]; 30 mg/kg oral) | VT (Frequency), ventricular tachycardia ([4]; 30 mg/kg oral) | other results
5 | CC(C)OC(=O)NCCSc1cccc2nccn12 [21'] | – | – | – | – | – | – | IC50 [1]: 5 µM
6 | CS(=O)(=O)NCCSc1cccc2nccn12 [Compound 1, 5-[2-(methylsulfonylamino)ethylthio]imidazo[1,2-a]pyridine] | 94 | -11.2 | -11.5 | 0/4 | 1/4 | 1/4 | CA (Frequency), cardiac arrest ([4]; 10 mg/kg oral): 1/4; VF (Frequency), ventricular fibrillation ([4]; 10 mg/kg oral): 2/4; VT (Frequency), ventricular tachycardia ([4]; 10 mg/kg oral): 2/4; Blood urea nitrogen ([5]; 10 mg/kg oral): 83.3 ± 20.4 mg/dL; Blood urea nitrogen ([5]; 30 mg/kg oral): 71.1 ± 11.4 mg/dL; Blood urea nitrogen ([5]; 50 mg/kg oral): 65.6 ± 5.1 mg/dL
7 | O=C(NCc1ccncc1)OCCSc1cccc2nccn12 [Compound 127, 5-[2-[4-(Pyridyl)methylcarbamoyloxy]ethylthio]imidazo[1,2-a]pyridine] | 57 | – | – | 0/3 | 1/3 | 1/3 | –
8 | CN(C)CCCN1c2ccccc2Sc2ccc(Cl)cc21 [chlorpromazine] | – | – | – | – | – | – | effect on experimental ischemic disorders (in words) [6]: effective for experimental ischemic disorders
